Assay results from PMC9778238, “How Discoloration of Porcine Cruor Hydrolysate Allowed the Identification of New Antifungal Peptides” (Foods, 2022).
Read-outs that look alike come from different tables or passages of the source. Ends that are not written are not given here.

Legend:
[1] = RP-UPLC-MS/MS peptide profile, retention time; format: physicochemical; settings: Poroshell 120 EC-C18, water/acetonitrile with 0.1% formic acid, B 1–13% in 6 min, 35% at 25 min, 100% at 35 min, 23 °C, 500 µL/min, early elution read as high polarity, late as higher hydrophobicity
Text: RP-UPLC coupled with MS/MS Q-TOF system was used to separate, identify, and characterize the peptide population, present in the porcine cruor hydrolysates. RP-UPLC tests were operated using a 1290 Infinity II UPLC (Agilent Technologies, Santa Clara, CA, USA), following the method proposed by. This chromatography instrument was composed of a binary pump (G7120A), a multisampler (G7167B), an in-line degasser and a variable wavelength detector (VWD G7114B) adjusted to 214 nm. […] Then, solvent B ramped to 100% until 35 min and was maintained for 10 min before returning to initial conditions. The cruor hydrolysate samples (2% protein (w/v)) were filtered through 0.22 µm PVDF filter and a volume of 0.25 µL was loaded onto a Poroshell 120 EC-C18 column (2.1 × 100 mm i.d., 2.7 micron, Agilent, Santa Clara, CA, USA) at a flow rate of 500 µL/min.
The determination of the accurate mass was performed using a hybrid ion mobility quadrupole time of flight mass spectrometer (6560 high-definition mass spectrometry (IM-Q-TOF), Agilent, Santa Clara, CA, USA). Calibration was completed using an ESI-L low concentration tuning mix (G1969-85000, Agilent Technologies, Santa Clara, CA, USA). Nitrogen was selected as the drying (13.0 L/min, 150 °C) and nebulizer gas (30 psi). The voltages were set at 3500 V for the capillary, 300 V for the nozzle and 400 V for the fragmentor. Positive mode at Extended Dynamic Range, 2 Ghz, 3200 m/z was used to record signals. Data acquisition and analysis were performed using the Agilent Mass Hunter Software package (LC/MS Data Acquisition, Version B.08.00 and Qualitative Analysis for IM-MS, Version B.07.00 Service Pack 2 with BioConfirm Software and BioConfirm, Version 10.0). A false discovery rate of 1% was used for extraction of biomolecules. […] Finally, these peptides were compared with bioactive peptides already known in the literature or analyzed with a predictive antimicrobial database.

[2] = tested on: R. mucilaginosa; format: cell-based, Rhodotorula mucilaginosa
Protocol: (§1) The peptide synthesis was performed by Laboratoire Innodal (Lévis, QC, Canada). Fourteen peptides were synthesized by standard solid-phase peptide synthesis (SPPS) on an automated peptide synthesizer. Solubility of peptides was first tested on saline water with 0.85% NaCl. […] Each peptide was solubilized in a small volume of dimethylsulfoxide (DMSO), and water was subsequently added until a 10% (v/v) DMSO concentration was reached. The stock solution of each peptide was at a concentration of 2.5 mM. The pH of the final solution was below the isoelectric point of each peptide. […] Antifungal assays on synthesized peptides were realized using methods described below.
(§2) The antibacterial activity was tested against two indicator bacteria including Escherichia coli and Listeria ivanovii (Table 1). These two strains are Gram-negative and Gram-positive, respectively and are commonly sensitive strains. They were subcultured in Tryptic Soy Broth (TSB) two times for 18 h, at 37 °C for E. coli and 30 °C for L. ivanovii. The antifungal activity was evaluated against four filamentous molds and four yeasts (Table 1). All the strains for antifungal assays were chosen since they are the most often strains identified as spoilage microorganisms of food products, specifically in the meat industry. The 4 filamentous molds were subcultured on Potato Dextrose Agar (PDA) at 25 °C, for 7 days, 2 times. The 4 yeasts were subcultured in Potato Dextrose Broth (PDB) at 25 °C, for 48 h, 2 to 3 times (Table 1).
(§3) The minimum inhibitory concentration (MIC) of the hydrolysate that induces inhibition of the microorganism tested was determined according to Froidevaux et al.. To quantify the growth inhibition, 96-well microplate assays were performed using Mueller-Hinton broth (MH, BD-Difco, Sparks, MD, USA). Samples were micro-diluted from the stock concentration of 40 mg/mL of proteins. The inoculum was pre-diluted in MH at a concentration of 5 × 10^5 CFU/mL. Then, the microplate was incubated 24 h at 37 °C for E. coli and at 30 °C for L. ivanovii. The molds and yeasts strains were, respectively tested at 2 × 10^4 and 1 × 10^5 conidia or yeast per mL [32]. The automated cell counter was used to determine the concentration. The microplates were incubated for 48 h at 25 °C for the molds and R. mucilaginosa, and at 35 °C for the other yeast strains. The MIC was the lowest concentration that inhibited completely the microorganism growth. The growth was measured by absorbance at 595 nm (Infinite® F200 PRO, Tecan Inc., Durham, NC, USA).
(§4) Then, they were, respectively incubated for 24 h at 37 °C or 30 °C and 48 h at 25 °C. The lowest concentration that inhibited microorganism growth is the MBC or MFC.

[3] = tested on: Paecilomyces spp.; format: cell-based
Protocol: as §1, §2, §3, §4

[4] = synthesized peptides, stock 2.5 mM in 10% (v/v) DMSO, highest tested concentration 1.25 mM, 48 h at 25 °C, mean ± SD

Substance	Retention Time [1] [min]	also measured
LGFPTTKTYFPHF [porcine hemoglobin fragment α 34–46]	16.46	–
SNADAVMGNPKVKAH [porcine hemoglobin fragment β 50–64]	9.91	–
FLGFPTTKTYFPHF [porcine hemoglobin fragment α 33–46]	19.13	–
DQLHVDPENFRLLGNVIVVVLARRLGHDFNPNVQ [porcine hemoglobin fragment β 95–128]	24.79	–
ERMFLGFPTTKTYFPHF [porcine hemoglobin fragment α 30–46]	18.24	–
NALAHKYH	–	MFC ([2]; 48 h): 300 ± 0 µM; MIC ([2]; 48 h): 300 ± 0 µM; MFC ([3]; 48 h): 300 ± 0 µM; MIC ([3]; 48 h): 200 ± 0 µM
NLSHGSDQVKAHGQKVADALTKAVGHLDDLPGAL [porcine hemoglobin fragment α 47–80]	15.89	–
GLWGKVNVDEVGGEALGRL [porcine hemoglobin fragment β 14–32]	16.84	–
FESF [porcine hemoglobin fragment β 43–46]	9.60	–
AAFQKVVAGVANA [porcine hemoglobin fragment β 129–141]	10.86	–
FRLLGNVIVVV	–	MFC ([2]; 48 h): 300 ± 0 µM; MIC ([2]; 48 h): 156 µM; MFC ([3]; 48 h): 600 ± 0 µM; MIC ([3]; 48 h): 625 µM
FESFGDLSNAD [porcine hemoglobin fragment β 43–53]	12.20	–
SFGDLSNADAVMGNPKVK [porcine hemoglobin fragment β 45–62]	12.90	–
HVDPENFRLLGNVIVVVL	–	MFC ([2]; 48 h): 300 ± 100 µM; MIC ([2]; 48 h): 100 ± 50 µM; MIC ([3]; 48 h): >1300 ± 0 µM
ANVSTVLTSKYR [porcine hemoglobin fragment α 130–141]	8.45	–
HVDPENFRLLGNVIVVVLARRLGHDFNPNVQ [porcine hemoglobin fragment β 98–128, synthesized]	23.26	–
PTTKTYFPHF [porcine hemoglobin fragment α 37–46]	12.01	–
KLLSHCL [porcine hemoglobin fragment α 99–105]	8.01	–
FRLLGNVIVVVLARRLGHDFNPNVQ [porcine hemoglobin fragment β 104–128]	21.87	–
SDLHAHKLRVDPVNF [porcine hemoglobin fragment α 84–98]	9.34	–
STVLTSKYR [porcine hemoglobin fragment α 133–141]	6.67	–
RMFLGFPTTKTYFPHF [porcine hemoglobin fragment α 31–46]	17.99	–
VLSAADKANVKAAWGKVGGQAGAHGAEA [porcine hemoglobin fragment α 1–28]	9.15	–
SFSDGLKHLDNLKGTFA [porcine hemoglobin fragment β 71–87]	12.90	–

Substance	Retention Time [1] [min]	also measured
VLSAADKANVKAAWGKVGGQAGAHGAEALERM [porcine hemoglobin fragment α 1–32]	12.14	–
LERMFLGF [porcine hemoglobin fragment α 29–36]	17.60	–
TSKYR [known antimicrobial peptide, porcine hemoglobin fragment α 137–141]	1.64	–
VTLAAHHPDDFNPSVHASLDKF [porcine hemoglobin fragment α 107–128]	11.37	–
DPENFRLLGNVIVVVLA [porcine hemoglobin fragment β 100–116]	11.10	–
LVVYPWTQRF [porcine hemoglobin fragment β 33–42]	16.65	–
HVDPENFRLLGNVIV [porcine hemoglobin fragment β 98–112]	17.16	–
KLLSHCLLVTLAAHHPD [porcine hemoglobin fragment α 99–115]	11.10	–
PNVQAAFQKVVAGVANALA [porcine hemoglobin fragment β 125–143]	11.10	–
HVDPENFRLLGNVIVVVLARRLGHDFNPNVQA [porcine hemoglobin fragment β 98–129, synthesized]	23.33	–
GAEALERMFLGFPT [porcine hemoglobin fragment α 25–38]	9.91	–
VLSAADKANVKAAWGKVGGQAGAHGAEAL [porcine hemoglobin fragment α 1–29]	10.86	–
LAHKYH [LAHKYH]	–	MFC ([2]; 48 h): 1300 ± 0 µM; MIC ([2]; 48 h): 1250 µM; MFC ([3]; 48 h): 1300 ± 0 µM; MIC ([3]; 48 h): 1250 µM
LANVSTVLTSKYR [porcine hemoglobin fragment α 129–141]	10.36	–
KLLSHCLL [porcine hemoglobin fragment α 99–106]	10.93	–
LLVVYPWTQRF [porcine hemoglobin fragment β 32–42]	19.00	–
CLLVTLAAHHPDDFNPS [porcine hemoglobin fragment α 104–120]	12.90	–
LSDLHAHKLRVDPVNF [porcine hemoglobin fragment α 83–98]	10.23	–
HVDPEN	–	MIC [2, 4]: not active; MIC [3, 4]: not active
TVLTSKYR [porcine hemoglobin fragment α 134–141]	6.54	–
GHLDDLPGALSALSDLHAHKL	–	MFC ([2]; 48 h): 600 ± 0 µM; MIC ([2]; 48 h): 600 ± 0 µM; MFC ([3]; 48 h): 1700 ± 700 µM; MIC ([3]; 48 h): 1300 ± 0 µM
ERMFLGF [porcine hemoglobin fragment α 30–36]	16.27	–
VLTSKYR [porcine hemoglobin fragment α 135–141]	5.97	–
